The target of assay [1] is T1, 5-HT1A receptor (Rattus norvegicus, UniProt P19327).
T1 construct: rat hippocampal membrane homogenate; from tissue; host or cells: rat hippocampus (membrane homogenate)
T1 sequence (P19327 1-422): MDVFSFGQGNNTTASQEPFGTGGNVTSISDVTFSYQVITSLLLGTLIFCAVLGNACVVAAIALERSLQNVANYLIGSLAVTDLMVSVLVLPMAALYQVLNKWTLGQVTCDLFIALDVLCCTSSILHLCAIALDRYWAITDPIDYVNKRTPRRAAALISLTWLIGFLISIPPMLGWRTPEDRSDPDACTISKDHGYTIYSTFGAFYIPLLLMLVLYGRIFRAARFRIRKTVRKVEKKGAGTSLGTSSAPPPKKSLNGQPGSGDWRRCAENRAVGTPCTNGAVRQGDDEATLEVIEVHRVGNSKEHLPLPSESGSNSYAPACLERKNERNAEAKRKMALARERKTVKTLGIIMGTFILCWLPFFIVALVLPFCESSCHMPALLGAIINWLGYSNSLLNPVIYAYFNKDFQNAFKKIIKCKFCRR
Briefly: 5-HT1A receptor binding activity in rat hippocampal membrane homogenate. The protocol:
The compounds of the invention were tested for 5 HT1A receptor binding activity in rat hippocampal membrane homogenate by the method of B S Alexander and M D Wood, J Pharm Pharmacol, 1988, 40, 888-891.

For assay [2], the target named is T2, 5-HT1 receptor (Rattus norvegicus, UniProt P19327).
T2 construct: 5-HT related behaviour in rats following i.v. administration; from tissue; host or cells: living rat (in vivo test, endogenous receptor)
T2 sequence (P19327 1-422): T1 sequence (P19327 1-422)
The assay can be described thus: 5-HT1 receptor agonist activity in vivo: 5-HT related behaviour in rats following i.v. administration. The note with it: iv, calculated by the method of Kimball et al. The protocol:
The compounds are evaluated for 5-HT1 receptor agonist activity in vivo by a method involving the assessment of 5-HT related behaviour in rats following i.v. administration of the test compound (M D Tricklebank et al, European Journal of Pharmacol, 1985, 106, 271-282).

The target of assay [3] is T3, 5HT1A receptor (Cavia porcellus, UniProt A0A286Y074).
T3 construct: in the guinea-pig ileum in vitro; from tissue; host or cells: guinea-pig ileum
T3 sequence (A0A286Y074 1-421): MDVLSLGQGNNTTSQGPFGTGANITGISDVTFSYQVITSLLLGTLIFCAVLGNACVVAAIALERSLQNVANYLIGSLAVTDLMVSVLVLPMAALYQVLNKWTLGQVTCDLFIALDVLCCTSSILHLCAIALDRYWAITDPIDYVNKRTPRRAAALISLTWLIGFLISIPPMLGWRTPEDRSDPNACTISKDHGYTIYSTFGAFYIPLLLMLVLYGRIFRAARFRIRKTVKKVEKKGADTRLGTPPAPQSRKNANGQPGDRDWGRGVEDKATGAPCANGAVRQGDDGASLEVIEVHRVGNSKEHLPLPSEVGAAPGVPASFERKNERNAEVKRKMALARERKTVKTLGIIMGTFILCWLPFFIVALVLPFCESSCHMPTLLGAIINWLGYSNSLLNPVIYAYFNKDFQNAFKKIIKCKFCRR
Briefly: antagonism of 8-hydroxy-2-(di-n-propylamino)tetralin in the guinea-pig ileum in vitro. It is filed as biochemical.

The compound `CN(C)C1CCc2cccnc2C1` (stereo not drawn) [Example 3, 5,6,7,8-Tetrahydro-7-dimethylaminoquinoline] returned a half-maximal inhibitory concentration (IC50) in assay [1] of 0.137 µM.

On to `CCCN(CCC)C1CCc2cccnc2C1` (stereo not drawn) [Example 12, 5,6,7,8-Tetrahydro-7--(1,1-dipropylamino)quinoline], for which the IC50 in assay [1] amounted to 0.138 µM. Moreover, in assay [2], the ED50 is 0.62 mg/kg.

As for `CCCN(CC1COc2ccccc2O1)C1CCc2cccnc2C1` (stereo not drawn) [Example 15], the IC50 in assay [1] was determined as 0.042 µM.

As to `CN(CCCCN1C(=O)CC2(CCCC2)CC1=O)C1CCc2cccnc2C1` (stereo not drawn) [Example 16, 8-{4-[N-(5,6,7,8-Tetrahydroquinolin-7 yl) N-methyl]aminobutyl}-8-azaspiro[4.5]decan 7,9-dione], in assay [1], the IC50 is 0.026 µM. In addition, the median effective dose (ED50) in assay [2] is 0.81 mg/kg. In assay [3], this compound yielded a pA2 of 7.7.

Turning to `CCCN(CCNC(=O)c1ccc(F)cc1)C1CCc2cccnc2C1` (stereo not drawn) [Example 19, 4-Fluoro-N-[2-[N --(5,6,7,8-tetrahydroquinoin-7 yl)-N'-propyl]aminoethyl}benzamide], the IC50 in assay [1] was determined as 0.009 µM. Further, in assay [2], the ED50 is 0.52 mg/kg.

`CN(CCC1COc2ccccc2O1)C1CCc2cccnc2C1` (stereo not drawn) [Example 20, 7-Amino-5,6,7,8-tetrahydro N-{2 [2 (2,3 dihydro-1,4-benzodioxinyl)]ethyl}-N-methylquinoline] gave a concentration for half-maximal inhibition (IC50) in assay [1] of 0.068 µM.

In assay [1], `CN(CCNC(=O)Cc1c(F)cccc1F)C1CCc2cccnc2C1` (stereo not drawn) [Example 35, N-{2-[N'-(5,6,7,8-Tetrahydroquinolin-7 yl)-N'-methyl]aminoethyl}-2,6-difluorophenylacetamide] showed an IC50 of 0.131 µM.

In assay [1], `c1cnc2c(c1)CCC(N1CCCC1)C2` (stereo not drawn) [Example 38, 5,6,7,8-Tetrahydro 7-pyrrolidinoquinoline] showed an IC50 of 0.055 µM. Further, the ED50 in assay [2] was 0.57 mg/kg.

Take `c1cnc2c(c1)CCC(N1CCC1)C2` (stereo not drawn) [Example 50, 7-Azetidino-5,6,7,8-tetrahydroquinoline]: the IC50 in assay [1] came to 0.136 µM. The ED50 in assay [2] is 1.1 mg/kg.

One may read the IC50 as the concentration that inhibits the measured activity by half. Low readings indicate inhibition by little substance, high ones a need for much substance. As a reminder, the ED50 is the dose that gives a 50% effect, or the effect in half of the subjects. In general, pA2 refers to a measure of antagonist potency on a negative log scale.

Values taken from US5075303A, “Pyridine derivatives” (John Wyeth & Brother Limited, priority 1989, dated 1991).
